PMC5731253 (Journal of medicinal chemistry, 2017)
Where two headings read alike, the source gives them in different places.

Columns and labels:
[1] = system: human embryonic lung (HEL) fibroblasts
[2] = system: thymidine kinase-deficient (TK−) HSV-1 KOS strain; type: cell-based, herpes simplex virus type 1; settings: HEL cell cultures; for Antiviral Activity EC50 HSV-1 TK (KOS): TK-deficient, ACV-resistant strain
HSV-1 (KOS) = assay: Anti-HSV-1; type: cell-based, herpes simplex virus type 1; settings: HEL cell cultures
[3] = system: human embryonic lung (HEL) fibroblasts; assay: Minimum cytotoxic concentration, HEL cell morphology
HSV-2 (G) = assay: Anti-HSV-2; type: cell-based, herpes simplex virus type 2; settings: HEL cell cultures
HIV-1 [4] = assay: HIV-1 inhibition in MT-4 cell cultures; type: cell-based, human immunodeficiency virus type 1; settings: HIV-1, MT-4 cells
HIV-1 [5] = assay: HIV-1 inhibition in human tonsillar tissues ex vivo; type: cell-based, human immunodeficiency virus type 1; settings: HIV-1 X4LAI.04, 12 days culture
TK- VZV (07-1) = type: cell-based, varicella-zoster virus

SMILES	Antiviral Activity EC50 HSV-1 TK (KOS) [2]	Antiviral Activity EC50 HSV-1 (KOS) (HSV-1 (KOS))	Cytotoxicity MCC ([3]; Table 3 (HSV assays))	Antiviral Activity EC50 HSV-2 (G) (HSV-2 (G))	Cytotoxicity MCC ([3]; Table 4 (HCMV/VZV assays))	also measured
Nc1nc(O)c2ncn(COC(CO)CO)c2n1 [Compound 1, ganciclovir, reference compound]	–	–	–	–	–	Cytotoxicity MCC [1]: >100 µM
Nc1nc2c(ncn2CCC(CO)CO)c(=O)[nH]1 [Compound 2, penciclovir, reference compound]	–	–	–	–	–	Cytotoxicity MCC [1]: >100 µM
C[C@H](NP(=O)(OCC(CCn1cnc2c(=O)[nH]c(/N=C/N(C)C)nc21)COP(=O)(N[C@@H](C)C(=O)OCc1ccccc1)Oc1ccccc1)Oc1ccccc1)C(=O)OCc1ccccc1 (some centres unmarked) [Compound 30]	inactive	inactive	>100 µM	inactive	–	–
C[C@H](NP(=O)(OCC(CO)CCn1cnc2c(=O)[nH]c(N)nc21)Oc1ccccc1)C(=O)OCc1ccccc1 (some centres unmarked) [Compound 42]	–	–	>100 µM	–	>50 µM	selectivity index (ratio IC50/EC50) (HIV-1 [4]): > 15
CC(C)(NP(=O)(OCC(CCn1cnc2c(=O)[nH]c(N)nc21)COP(=O)(NC(C)(C)C(=O)OCc1ccccc1)Oc1ccccc1)Oc1ccccc1)C(=O)OCc1ccccc1 (centres unmarked) [Compound 38]	inactive	inactive	>100 µM	inactive	>50 µM	–
C[C@H](NP(=O)(OCC(COP(=O)(N[C@@H](C)C(=O)OCc1ccccc1)Oc1ccccc1)SCn1cnc2c(=O)[nH]c(N)nc21)Oc1ccccc1)C(=O)OCc1ccccc1 (some centres unmarked) [Compound 55]	–	–	–	–	–	Anti-HIV Activity EC50 (HIV-1 [5]): did not inhibit HIV
C[C@H](NP(=O)(OCC(CCn1cnc2c(Cl)nc(N)nc21)COP(=O)(N[C@@H](C)C(=O)OCc1ccccc1)Oc1ccccc1)Oc1ccccc1)C(=O)OCc1ccccc1 (some centres unmarked) [Compound 59]	–	–	–	–	–	fold loss in antiviral activity versus mono-ProTide 60 (HIV-1 [4]): 7 fold
CCOC(=O)[C@H](C)NP1(=O)OCC(OCn2cnc3c(=O)[nH]c(N)nc32)CO1 (some centres unmarked) [Compound 74]	–	–	–	–	–	selectivity index (ratio IC50/EC50) (HIV-1 [4]): > 7
CC(C)(NP(=O)(OCC(CO)OCn1cnc2c(=O)[nH]c(N)nc21)Oc1ccccc1)C(=O)OCc1ccccc1 (centres unmarked) [Compound 20]	–	–	>100 µM	–	>50 µM	fold difference in EC50 values between HSV-1 TK+ and TK− strains [2]: < 2.5 fold; fold more active than ACV against VZV TK− 07-1 strain (TK- VZV (07-1)): ≥ 20 fold
CC(C)(NP(=O)(OCC(CCn1cnc2c(=O)[nH]c(N)nc21)COP(=O)(NC(C)(C)C(=O)OCc1ccccc1)Oc1cccc2ccccc12)Oc1cccc2ccccc12)C(=O)OCc1ccccc1 (centres unmarked) [Compound 40]	inactive	inactive	100 µM	inactive	>50 µM	–
C[C@H](NP(=O)(OCC(CO)OCn1cnc2c(=O)[nH]c(N)nc21)Oc1ccccc1)C(=O)OCc1ccccc1 (some centres unmarked) [Compound 27]	–	–	>100 µM	–	>100 µM	fold more active than ACV against VZV TK− 07-1 strain (TK- VZV (07-1)): ≥ 20 fold
C[C@H](NP(=O)(OCC(CCn1cnc2c(=O)[nH]c(N)nc21)COP(=O)(N[C@@H](C)C(=O)OCc1ccccc1)Oc1cccc2ccccc12)Oc1cccc2ccccc12)C(=O)OCc1ccccc1 (some centres unmarked) [Compound 37]	inactive	inactive	–	inactive	>50 µM	–
COc1nc(N)nc2c1ncn2CCC(CO)COP(=O)(N[C@@H](C)C(=O)OCc1ccccc1)Oc1ccccc1 (some centres unmarked) [Compound 66]	retention of some activity	–	–	–	–	selectivity index (ratio IC50/EC50) (HIV-1 [4]): 21
